Drawing on the NIST ThermoML archive (doi:10.1016/j.jct.2018.08.037), this text covers mass density for two compounds.

The series in a line: mn = molality of the nth substance listed, in mol/kg. As to conditions: 298.15 K, 100 kPa, Liquid, Buoyancy - hydrostatic balance.

“And” between values parts separate entries of the source, which are not always exact repeats. Identical values can stand only once. ± gives the expanded uncertainty stated by the source.

In the case of `[Na+].[OH-]` [sodium hydroxide] + O, the mass density by setting is: (m1 = 1) 1043 ± 14 kg/m3 and 1041 ± 14 kg/m3; (m1 = 2) 1081 ± 14 kg/m3.
With `[Na+].[O-][Cl+3]([O-])([O-])[O-]` [sodium perchlorate] + O, the mass density reads like this: (m1 = 1.05) 1076 ± 14 kg/m3 and 1072 ± 15 kg/m3; (m1 = 1.62) 1110 ± 14 kg/m3; (m1 = 2.21) 1148 ± 14 kg/m3; (m1 = 2.22) 1145 ± 14 kg/m3; (m1 = 2.84) 1185 ± 16 kg/m3; (m1 = 2.86) 1180 ± 16 kg/m3. The mass density is, setting by setting: (m1 = 3.51) 1223 ± 14 kg/m3; (m1 = 6.68) 1360 ± 14 kg/m3.
